The subject of this test is colon cancer cell lines. Put plainly: Total cholesterol content of colon cancer cell lines with and without atorvastatin (Cholesterol/Cholesteryl Ester Quantification Kit). Conditions: 25 μM atorvastatin, 24 hours, serum-free medium; cell lines with rs12654264 A allele compared to T allele (FIG. 4). The test is classed as cell-based.

Experimental: Microsatellite stable (MSS) colon cancer cell lines (SW480, SW620, HT29, WiDr, and SW1417) were cultured in RPMI (supplemented with 10% Fetal Bovine Serum, 100 IU/mL of Penicillin, 100 IU/mL of Streptomycin, and 1× Non-Essential Amino Acid) at 37° C. in an atmosphere of 5% CO2. The cells were trypsinized and washed with PBS twice. […] The cholesterol level of each colon cancer line was measured using Cholesterol/Cholesteryl Ester Quantification Kit from Abcam (Cambridge, Mass.). Cells were plated into 6-well plates to reach approximate confluency of 70%. After overnight incubation, the cells were treated with 25 μM atorvastatin diluted in serum-free DMEM/F12 50:50 (supplemented with 100 IU/mL of Penicillin, 100 IU/mL of Streptomycin, and 1× Non-Essential Amino Acid) for 24 hours at 37° C., 5% CO2. After treatment, the cells were trypsinized and counted to 1×10^6 cells. The cells were pelleted, washed with PBS twice, and resuspended in 200 μl of pure chloroform with 1% Triton® X-100. The cell suspension was vortexed for 15 seconds, and centrifuged at maximum speed for 10 minutes. The lower (organic) phase was collected and air dried at 50° C., followed by vacuum drying for 30 minutes to remove the chloroform. The dried lipids were resuspended with 100 μl of the Cholesterol Reaction Buffer provided in the kit, and vortexed for 5 minutes vigorously at room temperature. […]

`CC(C)c1c(C(=O)Nc2ccccc2)c(-c2ccccc2)c(-c2ccc(F)cc2)n1CC[C@@H](O)C[C@@H](O)CC(=O)O` [atorvastatin]: the statin-dependent cholesterol reduction result is “significantly greater statin-dependent cholesterol reduction”.

The values above are taken from patent publication US20100280056A1, “IDENTIFICATION OF SUBJECTS LIKELY TO BENEFIT FROM STATIN THERAPY” (The Govt. of the U. S. as Represented by the Secretary of …, priority 2007, published 2010).
